# In paper PMC6151456, “Screening a Natural Product-Based Library against Kinetoplastid Parasites” (Molecules : A Journal of Synthetic Chemistry and Natural …, 2017):
# Where two headings read alike, the source gives them in different places.
# Columns and labels:
# [1] = test system: T. cruzi intracellular amastigotes; experiment: T. cruzi intracellular amastigote image-based assay; format: cell-based, Trypanosoma cruzi; details: for IC50: n = 2, top 18.3 µM
# Protocol: (§1) For the primary screen, compounds were prepared as a stock concentration of 5 mM in 100% DMSO and tested in duplicate points for two independent experiments (n = 2) at final assay concentrations of 20 µM and 16.7 µM for the L. donovani intracellular amastigote and promastigote viability assays, respectively. Primary screening against T. b. brucei was undertaken at 5 µM and for T. cruzi at 10 µM final concentrations. […] These compounds were then retested in a 14 point format to determine the IC50 value against the parasite, and against HEK-293, THP-1 and 3T3 cells to determine the selectivity to the parasite. […] A top dose of 20 µM was used in the T. b. brucei assay and 18.3 µM for T.cruzi assay, in 14 point dose repsonse curves as described.
# (§2) The efficacy of compounds against T. cruzi was undertaken using a phenotypic, high-throughput image-based assay as previously described.
# [2] = test system: HEK-293 cells; experiment: HEK-293 resazurin viability assay (cytotoxicity, selectivity); format: cell-based, human
# Protocol: (§3) Primary screening against T. b. brucei was undertaken at 5 µM and for T. cruzi at 10 µM final concentrations.
# Cytotoxicity testing was undertaken as previously described.
# [3] = test system: L. donovani DD8 intracellular amastigotes; experiment: L. donovani DD8 intracellular amastigote high content imaging assay; format: cell-based, Leishmania donovani; details: 14 point dose response, top 20 µM
# Protocol: as §1
# A high content, high-throughput imaging assay was used to identify compounds active against L. donovani DD8 intracellular amastigotes as described previosuly.
# [4] = test system: THP-1 cells; experiment: THP-1 cytotoxicity (selectivity); format: cell-based, human
# Protocol: as §1
# [5] = test system: L. donovani DD8 promastigotes; experiment: L. donovani DD8 promastigote viability assay (resazurin); format: cell-based, Leishmania donovani; details: for IC50: 14 point dose response, top 16.7 µM
# Protocol: as §1
# This assay was established to assess the activity of the compound library on the extracellular form of the parasites. An initial cell density of 1 × 10^5 parasites/mL was inoculated into a 75 cm^2 flask (in a total of 30 mL of M199 medium + 10% (v/v) HIFBS) and incubated at 27 °C. After 96 h the parasites reached the mid-log phase and were seeded in black, clear bottom 384-well plates (Greiner-bio-one®, Monroe, UT, USA) at a concentration of 5 × 10^5 parasites/mL in a volume of 55 µL using a Bravo automated liquid handling platform (Agilent, Santa Clara, CA, USA). Compound stocks were diluted 1:25 in M199 media without HIFBS using a dilution plate (Greiner-bio-one®, Monroe, UT, USA). The compounds were dispensed in 5 µL using a Bravo and parasites incubated for an additional 68 h at 27 °C. Resazurin (Cayman Chemicals®, Ann Arbor, MI, USA) at 0.142 mM final assay concentration was then dispensed into plates at a volume of 10 µL/well using a Multidrop™ 384 Reagent Dispenser (Thermo Scientific®, Newington, NH, USA) and incubated at 27 °C. The plates were read after 4 h on an EnVision™ Multilabel plate reader (PerkinElmer, Waltham, MA, USA) using fluorometry with an excitation of 530 nm and emission 590 nm. For the L. donovani DD8 promastigote viability assay, 1 µM of amphotericin B was used as positive control and 0.4% DMSO as negative control.
# [6] = test system: T. b. brucei bloodstream form strain 427; experiment: T. b. brucei resazurin viability assay; format: cell-based, Trypanosoma brucei brucei
# Protocol: as §1
# The efficacy of compounds against T. b. brucei bloodstream form was evaluated using a resazurin-based assay, previously described in the literature.
# [7] = test system: 3T3 host cells; experiment: 3T3 host cell cytotoxicity (selectivity); format: cell-based, mouse; details: relative to T. cruzi
# Protocol: as §3, §2
# [8] = test system: P. falciparum (3D7); details: cited from earlier work
# [9] = test system: P. falciparum (Dd2); details: read-out: IC50, P. falciparum Dd2; cited from earlier work
# [10] = Trypanosoma cruzi, intracellular amastigotes, read-out: IC50 (mean ± SD), T. cruzi
# [11] = Leishmania donovani, read-out: IC50 (mean ± SD), L. donovani DD8 intracellular amastigotes, n = 2
# [12] = relative to L. donovani DD8 intracellular amastigotes
# [13] = relative to L. donovani DD8 promastigotes
# [14] = Leishmania donovani, n = 2, read-out: IC50 (mean ± SD), L. donovani DD8 intracellular amastigotes
# [15] = Leishmania donovani, at 16.7 µM
# [16] = Trypanosoma brucei, n = 2, 14 point dose response, top 20 µM, read-out: IC50 (mean ± SD), T. b. brucei
# [17] = Trypanosoma brucei, reference compounds, read-out: IC50, T. b. brucei
# [18] = n = 2, 14 point dose response, top 20 µM, read-out: IC50 (mean ± SD), T. b. brucei
Molecule,"IC50 [1, 10] [nM]",Selectivity index (SI) compared to HEK-293 cells ([2]; relative to T. cruzi),"Selectivity index (SI) compared to THP-1 cells [4, 12]","Selectivity index (SI) compared to HEK-293 cells [2, 12]",Selectivity index (SI) compared to HEK-293 cells ([2]; relative to T. b. brucei),"IC50 [6, 16] [nM]",Selectivity index (SI) compared to 3T3 cells [7],further results
"CC1CS(=O)(=O)CCN1/N=C/c1ccc([N+](=O)[O-])o1 (centres unmarked) [Nifurtimox, reference compound]",620 ± 100,> 243.03,,,,,,
"COc1c(SC)c(CCN(C)C)c2sc3c(CCN(C)C)c(SC)c(OC)c(OC)c3ssc2c1OC [Compound 11, Lissoclinotoxin F]",,,> 1.20,> 2.40,,,,"IC50 [3, 11]: 8310 ± 670 nM; Selectivity index (SI) compared to THP-1 cells [4, 13]: > 1.81; Selectivity index (SI) compared to HEK-293 cells [2, 13]: > 3.62; IC50 ([5]; Leishmania donovani, read-out: IC50 (mean ± SD), L. donovani DD8 promastigotes, n = 2): 5510 ± 300 nM"
"CCOC(=O)c1c(C)n(-c2ccc(OC)cc2)c2ccc(O)c(CN(CC)CC)c12 [Compound 12, ethyl 4-((diethylamino)methyl)-5-hydroxy-1-(4-methoxyphenyl)-2-methyl-1H-indole-3-carboxylate]",,,> 1.50,> 2.97,,,,"IC50 [3, 14]: 11100 ± 310 nM; activity against T. cruzi [1]: no significant activity; activity against T. b. brucei [6]: no significant activity; inhibition at 16.7 µM [5, 15]: 100%"
N=C(N)c1ccc(/N=N/Nc2ccc(C(=N)N)cc2)cc1 [Diminazene],,,,,> 962.75,40 ± 10,,"IC50 [6, 17]: 40.5 ± 12.8 nM"
"COc1c(OC)c2c(c(CCN(C)C)c1SC)Sc1c(CCN(C)C)c(SC)c(OC)c(OC)c1S2 [Compound 1, Lissoclinotoxin E]",,> 2.52,1.13,> 2.26,> 17.68,,> 4.67,"IC50 [3, 11]: < 5000 nM; IC50 ([3]; read-out: IC50 (mean ± SD), L. donovani DD8 intracellular amastigotes, n = 2, listed as Lissoclinotoxin E (1)): 4410 ± 240 nM; IC50 ([1]; Trypanosoma cruzi, read-out: IC50 (mean ± SD), T. cruzi, intracellular amastigotes): < 5000 nM; IC50 ([1]; read-out: IC50 (mean ± SD), T. cruzi, intracellular amastigotes, listed as Lissoclinotoxin E (1)): 3920 ± 380 nM; Selectivity index (SI) compared to THP-1 cells [4, 13]: 6.88; Selectivity index (SI) compared to HEK-293 cells [2, 13]: > 11.72"
"O=C(Cn1ccnc1[N+](=O)[O-])NCc1ccccc1 [Benznidazole, reference compound]",3360 ± 1520,> 44.84,,,,,,
N=C(N)c1ccc(OCCCCCOc2ccc(C(=N)N)cc2)cc1 [Pentamidine],,,,,> 334.52,2 ± 1,,"IC50 [6, 17]: 2.86 ± 1.46 nM"
Psammaplysin F [Compound 14],,> 3.51,,,,,> 1.90,"IC50 ([8]; read-out: IC50, P. falciparum 3D7): 870 nM; IC50 ([1]; intracellular amastigotes, listed as Psammaplysin F (14), read-out: IC50 (mean ± SD), T. cruzi): 5630 ± 760 nM; IC50 [9]: 1400 nM"
"COc1ccc(C[C@H](N)C(=O)N[C@H]2[C@@H](O)[C@H](n3cnc4c(N(C)C)ncnc43)O[C@@H]2CO)cc1 [Puromycin, reference compound]",1650 ± 350,0.150,,,12.96,30,,"IC50 [6, 17]: 39 ± 6.09 nM"
"O=C1N[C@@H]2C(=C[C@H](O)[C@@H](O)[C@H]2O)c2cc3c(c(O)c21)OCO3 [Compound 6, Narciclasine]",,0.21,,,1.09,,3.28,"IC50 ([1]; intracellular amastigotes, read-out: IC50 (mean ± SD), T. cruzi): 200 ± 10 nM; IC50 [6, 18]: 30 ± 10 nM; inhibition of L. donovani DD8 promastigotes ([5]; at 16.7 µM): 100% inhibition at 16.7 µM"
"COc1c(C)c2c(c(O)c1C/C=C(\C)CCC(=O)O)C(=O)OC2 [Compound 5, Mycophenolic acid, reference compound]",1590 ± 30,0.37,,,1.01,510 ± 100,0.13,
"C[C@@H]1[C@H](O)[C@@H](C)/C=C/C=C/C=C/C=C/C=C/C=C/C=C/[C@H](O[C@@H]2O[C@H](C)[C@@H](O)[C@H](N)[C@@H]2O)C[C@@H]2O[C@](O)(C[C@@H](O)C[C@@H](O)[C@H](O)CC[C@@H](O)C[C@@H](O)CC(=O)O[C@H]1C)C[C@H](O)[C@H]2C(=O)O [Amphotericin B, reference compound]",,,> 9.61,> 41.65,,,,"IC50 [3, 14]: 200 ± 20 nM; Selectivity index (SI) compared to THP-1 cells [4, 13]: > 16.39; Selectivity index (SI) compared to HEK-293 cells [2, 13]: > 68.27; IC50 ([5]; Leishmania donovani, n = 2, read-out: IC50 (mean ± SD), L. donovani DD8 promastigotes): 120 ± 10 nM"
"O=C1C2=C(C(=O)c3ccccc31)S(=O)(=O)CCN2 [Compound 9, 3,4-dihydro-2H-naphtho[2,3-b][1,4]thiazine-5,10-dione 1,1-dioxide]",3820 ± 610,1.11,,,,,1.24,"IC50 ([1]; intracellular amastigotes, listed as 3,4-Dihydro-2H-naphtho[2,3-b]-[1,4] thiazine-5,10-dione 1,1-dioxide (9), read-out: IC50 (mean ± SD), T. cruzi): 3810 ± 600 nM; inhibition at 16.7 µM [5, 15]: 100%"
Spermatinamine [Compound 2],,,0.80,0.64,5.89,,,"IC50 ([3]; n = 2, read-out: IC50 (mean ± SD), L. donovani DD8 intracellular amastigotes): 6150 ± 50 nM; IC50 ([8]; read-out: antimalarial IC50, P. falciparum (3D7)): 230 nM; Selectivity index (SI) compared to THP-1 cells [4, 13]: 0.41; Selectivity index (SI) compared to HEK-293 cells [2, 13]: 0.33; IC50 [6, 18]: 1000 ± 260 nM; IC50 ([5]; n = 2, read-out: IC50 (mean ± SD), L. donovani DD8 promastigotes): 11900 ± 560 nM"
"CC(C)=CCC[C@]1(C)C=Cc2c(O)c3c(c(CC=C(C)C)c2O1)O[C@]12C(=C[C@@H]4C[C@H]1C(C)(C)O[C@@]2(C/C=C(/C)C(=O)O)C4=O)C3=O [Compound 4, Gambogic acid]",1870 ± 70,1.50,,,7.11,270 ± 40,1.00,"inhibition at 16.7 µM [5, 15]: 100%"
